# Measurements taken from US20240383875A1, “Benzimidazole Pyridine Derivatives” (Hoffmann-La Roche Inc., priority 2022, published 2024).
# What was measured:
# Format in all cases: biochemical
# SIK2 = SIK2 (Homo sapiens, UniProt Q9H0K1); experiment: Enzymatic activity assay SIK2, RapidFire mass spectrometry (phosphorylation of CHK-peptide); conditions: RapidFire MS, inhibition of SIK2; read-out: SIK2 RF IC50
# Summary of the method: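 Read-out is the summed phospho-species fraction of CHK-peptide by RapidFire mass spectrometry, normalized between DMSO and 1 μM YKL-05-099. The reaction used 0.5 nM SIK2, 100 μM ATP and 10 μM peptide solutions in HEPES pH 7.0/10 mM magnesium acetate for 45 min at ambient temperature.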
# SIK3 = SIK3 (Homo sapiens, UniProt Q9Y2K2); experiment: Enzymatic activity assay SIK3, RapidFire mass spectrometry (phosphorylation of CHK-peptide); conditions: RapidFire MS, inhibition of SIK3; read-out: SIK3 RF IC50
# Sequence of SIK3 (Q9Y2K2 whole entry): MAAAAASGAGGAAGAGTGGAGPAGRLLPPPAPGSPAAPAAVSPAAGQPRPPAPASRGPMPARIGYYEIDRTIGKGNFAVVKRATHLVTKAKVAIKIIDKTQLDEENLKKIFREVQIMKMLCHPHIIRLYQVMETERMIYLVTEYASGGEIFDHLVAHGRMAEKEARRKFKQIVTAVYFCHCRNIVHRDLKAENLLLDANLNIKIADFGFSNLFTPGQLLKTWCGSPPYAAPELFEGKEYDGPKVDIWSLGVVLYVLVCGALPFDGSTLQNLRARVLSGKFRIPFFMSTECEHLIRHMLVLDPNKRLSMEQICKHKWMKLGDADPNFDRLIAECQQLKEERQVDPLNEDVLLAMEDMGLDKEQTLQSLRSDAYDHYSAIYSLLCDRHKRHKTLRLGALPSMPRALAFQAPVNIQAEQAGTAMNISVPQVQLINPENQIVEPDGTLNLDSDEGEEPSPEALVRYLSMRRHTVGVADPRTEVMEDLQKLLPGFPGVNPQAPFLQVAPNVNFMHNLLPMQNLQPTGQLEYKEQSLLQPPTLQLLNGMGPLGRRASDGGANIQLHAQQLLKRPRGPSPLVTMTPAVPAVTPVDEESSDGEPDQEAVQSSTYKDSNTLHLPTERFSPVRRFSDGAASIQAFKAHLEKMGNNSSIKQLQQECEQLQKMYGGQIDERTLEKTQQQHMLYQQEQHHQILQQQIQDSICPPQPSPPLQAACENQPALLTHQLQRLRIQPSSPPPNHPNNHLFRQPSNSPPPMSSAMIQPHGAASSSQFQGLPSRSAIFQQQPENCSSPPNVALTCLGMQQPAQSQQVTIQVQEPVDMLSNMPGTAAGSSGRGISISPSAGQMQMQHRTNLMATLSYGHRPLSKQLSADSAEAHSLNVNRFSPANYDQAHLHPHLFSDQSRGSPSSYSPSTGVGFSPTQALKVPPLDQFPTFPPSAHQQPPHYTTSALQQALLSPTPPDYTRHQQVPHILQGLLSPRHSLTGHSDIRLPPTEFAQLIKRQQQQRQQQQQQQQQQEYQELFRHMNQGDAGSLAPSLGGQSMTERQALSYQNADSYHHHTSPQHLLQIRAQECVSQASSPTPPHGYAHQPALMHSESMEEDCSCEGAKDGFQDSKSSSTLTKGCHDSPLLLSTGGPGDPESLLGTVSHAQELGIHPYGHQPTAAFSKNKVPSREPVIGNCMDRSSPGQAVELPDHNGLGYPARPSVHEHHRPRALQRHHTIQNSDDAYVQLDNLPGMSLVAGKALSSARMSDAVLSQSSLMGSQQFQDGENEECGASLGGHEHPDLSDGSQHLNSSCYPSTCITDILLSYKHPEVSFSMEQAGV
# Summary of the method: (§1)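 Human SIK1/2/3, 5/0.5/1.5 nM; 12.5 mM HEPES pH 7.0, 10 mM Mg acetate, 0.005% BSA. 30 min cpd pre-inc, + CHK-peptide (10 μM soln) + ATP (100 μM soln), 45 min RT. Formic acid stop; RF-MS phospho ratio; IC50.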
# SIK1 = SIK1 (Homo sapiens, UniProt P57059); experiment: Enzymatic activity assay SIK1, RapidFire mass spectrometry (phosphorylation of CHK-peptide); conditions: RapidFire MS, inhibition of SIK1; read-out: SIK1 RF IC50
# Sequence of SIK1 (P57059 whole entry): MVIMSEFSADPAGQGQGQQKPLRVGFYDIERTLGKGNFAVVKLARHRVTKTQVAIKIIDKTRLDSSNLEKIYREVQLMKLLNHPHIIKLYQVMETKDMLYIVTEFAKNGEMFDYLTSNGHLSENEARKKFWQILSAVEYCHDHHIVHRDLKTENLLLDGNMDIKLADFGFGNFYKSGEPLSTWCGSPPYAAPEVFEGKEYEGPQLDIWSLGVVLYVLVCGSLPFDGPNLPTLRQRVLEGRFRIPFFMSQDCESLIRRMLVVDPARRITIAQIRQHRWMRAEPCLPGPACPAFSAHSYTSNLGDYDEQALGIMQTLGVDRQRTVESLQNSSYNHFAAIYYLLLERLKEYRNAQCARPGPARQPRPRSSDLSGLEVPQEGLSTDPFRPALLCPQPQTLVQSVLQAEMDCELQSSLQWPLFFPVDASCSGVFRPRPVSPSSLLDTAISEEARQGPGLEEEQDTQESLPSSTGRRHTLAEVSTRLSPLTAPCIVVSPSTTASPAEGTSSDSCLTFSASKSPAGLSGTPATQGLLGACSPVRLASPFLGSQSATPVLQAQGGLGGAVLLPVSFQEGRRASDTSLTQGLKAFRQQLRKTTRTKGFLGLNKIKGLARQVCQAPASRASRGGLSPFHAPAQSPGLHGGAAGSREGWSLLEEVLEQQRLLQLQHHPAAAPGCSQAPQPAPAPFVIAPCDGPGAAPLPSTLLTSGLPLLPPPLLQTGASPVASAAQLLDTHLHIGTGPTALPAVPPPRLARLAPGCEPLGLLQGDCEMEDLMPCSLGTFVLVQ
# Summary of the method: as §1
# Sequence of SIK2 (Q9H0K1 whole entry): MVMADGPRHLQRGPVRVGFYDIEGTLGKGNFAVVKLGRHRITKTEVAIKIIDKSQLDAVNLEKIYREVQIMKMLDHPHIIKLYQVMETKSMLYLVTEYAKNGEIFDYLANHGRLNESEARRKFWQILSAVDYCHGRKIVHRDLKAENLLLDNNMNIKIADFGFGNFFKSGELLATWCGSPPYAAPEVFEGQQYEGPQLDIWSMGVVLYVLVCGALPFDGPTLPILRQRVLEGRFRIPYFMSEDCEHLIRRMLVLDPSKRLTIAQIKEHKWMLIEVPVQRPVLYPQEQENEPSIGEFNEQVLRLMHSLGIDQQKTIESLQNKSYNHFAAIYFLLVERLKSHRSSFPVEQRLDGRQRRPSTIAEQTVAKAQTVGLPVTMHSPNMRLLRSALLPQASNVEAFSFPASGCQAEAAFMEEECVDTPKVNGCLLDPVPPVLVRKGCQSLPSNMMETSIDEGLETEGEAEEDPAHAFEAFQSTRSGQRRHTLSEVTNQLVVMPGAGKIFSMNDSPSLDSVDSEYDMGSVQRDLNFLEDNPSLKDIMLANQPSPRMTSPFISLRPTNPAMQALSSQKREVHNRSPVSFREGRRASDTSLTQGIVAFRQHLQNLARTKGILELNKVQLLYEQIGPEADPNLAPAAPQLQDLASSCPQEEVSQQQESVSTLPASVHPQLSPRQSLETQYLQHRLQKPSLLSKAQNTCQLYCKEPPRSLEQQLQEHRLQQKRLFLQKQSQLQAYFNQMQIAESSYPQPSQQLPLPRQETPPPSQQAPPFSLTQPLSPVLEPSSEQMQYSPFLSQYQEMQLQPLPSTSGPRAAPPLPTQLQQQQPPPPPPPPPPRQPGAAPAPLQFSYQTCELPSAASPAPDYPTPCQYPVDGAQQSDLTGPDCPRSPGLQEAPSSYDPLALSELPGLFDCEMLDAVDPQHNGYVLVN
IC50 (SIK2) [nM],IC50 (SIK3) [nM],IC50 (SIK1) [nM],SMILES
10.4,2.6,616,"Cc1ccc(Nc2ccc3c(c2)ncn3-c2ccc(C(C)O)c(-n3nc(C)cc3C#N)n2)nn1 (stereo not drawn) [Example 104, 2-[3-(1-Hydroxyethyl)-6-[5-[(6-methylpyridazin-3-yl)amino]benzimidazol-1-yl]-2-pyridyl]-5-methyl-pyrazole-3-carbonitrile]"
783,236,1340,"Cc1ccc(Nc2ccc3c(c2)ncn3-c2ccc(C(C)O)c(N3CC[C@@H](C#N)C3)n2)nn1 (stereo partly drawn) [Example 105, (3R)-1-[3-(1-Hydroxyethyl)-6-[5-[(6-methylpyridazin-3-yl)amino]benzimidazol-1-yl]-2-pyridyl]pyrrolidine-3-carbonitrile]"
21.1,2.5,869,"Cc1ccc(Nc2ccc3ncn(-c4ccc(C(C)O)c(N5CC[C@@H](C#N)C5)n4)c3c2)nn1 (stereo partly drawn) [Example 106, (3R)-1-[3-(1-Hydroxyethyl)-6-[6-[(6-methylpyridazin-3-yl)amino]benzimidazol-1-yl]-2-pyridyl]pyrrolidine-3-carbonitrile]"
1370,3500,2610,"Cc1ccc(Nc2ccc3ncn(-c4ccc(C(C)O)c(-n5nc(C)cc5C)n4)c3c2)nn1 (stereo not drawn) [Example 107, 1-[2-(3,5-Dimethylpyrazol-1-yl)-6-[6-[(6-methylpyridazin-3-yl)amino]benzimidazol-1-yl]-3-pyridyl]ethanol; formic acid]"
42.6,6.4,3820,"Cc1ccc(Nc2ccc3c(c2)ncn3-c2ccc(C(C)O)c(-n3nc(C)cc3C)n2)nn1 (stereo not drawn) [Example 108, 1-[2-(3,5-Dimethylpyrazol-1-yl)-6-[5-[(6-methylpyridazin-3-yl)amino]benzimidazol-1-yl]-3-pyridyl]ethanol; formic acid]"
1.4,0.8,11,"Cc1nnc(Nc2ccc3c(c2)ncn3-c2ccc(C(C)O)c(-n3nc(C#N)cc3C)n2)s1 (stereo not drawn) [Example 111, 1-[3-(1-Hydroxyethyl)-6-[5-[(5-methyl-1,3,4-thiadiazol-2-yl)amino]benzimidazol-1-yl]-2-pyridyl]-5-methyl-pyrazole-3-carbonitrile]"
76,34.1,319,"Cc1cc(C#N)nn1-c1nc(-n2cnc3cc(OC4CCN(C5COC5)CC4)ccc32)ccc1C(C)O (stereo not drawn) [Example 113, 1-[3-(1-Hydroxyethyl)-6-[5-[[1-(oxetan-3-yl)-4-piperidyl]oxy]benzimidazol-1-yl]-2-pyridyl]-5-methyl-pyrazole-3-carbonitrile]"
47,606,49,"Cc1cc(C#N)nn1-c1nc(-n2cnc3ccc(OC4CCN(C5COC5)CC4)cc32)ccc1C(C)O (stereo not drawn) [Example 114, 1-[3-(1-Hydroxyethyl)-6-[6-[[1-(oxetan-3-yl)-4-piperidyl]oxy]benzimidazol-1-yl]-2-pyridyl]-5-methyl-pyrazole-3-carbonitrile]"
3.9,0.7,283,"Cc1ccc(Nc2ccc3c(c2)ncn3-c2ccc(C(C)O)c(-n3ccc(C#N)n3)n2)nn1 (stereo not drawn) [Example 115, 1-[3-(1-Hydroxyethyl)-6-[5-[(6-methylpyridazin-3-yl)amino]benzimidazol-1-yl]-2-pyridyl]pyrazole-3-carbonitrile]"
47.1,9.6,1620,"Cc1ccc(Nc2ccc3c(c2)ncn3-c2ccc(C(C)O)c(NCC3(C#N)CC3)n2)nn1 (stereo not drawn) [Example 116, 1-[[[3-(1-Hydroxyethyl)-6-[5-[(6-methylpyridazin-3-yl)amino]benzimidazol-1-yl]-2-pyridyl]amino]methyl]cyclopropanecarbonitrile; formic acid]"
1020,365,3530,"Cc1ccc(Nc2ccc3ncn(-c4ccc(C(C)O)c(NCC5(C#N)CC5)n4)c3c2)nn1 (stereo not drawn) [Example 117, 1-[[[3-(1-Hydroxyethyl)-6-[6-[(6-methylpyridazin-3-yl)amino]benzimidazol-1-yl]-2-pyridyl]amino]methyl]cyclopropanecarbonitrile; formic acid]"
36.4,7.1,2770,"Cc1ccc(Nc2ccc3c(c2)ncn3-c2ccc(C(C)O)c(-c3cncc(C#N)c3)n2)nn1 (stereo not drawn) [Example 118, 5-[3-(1-Hydroxyethyl)-6-[5-[(6-methylpyridazin-3-yl)amino]benzimidazol-1-yl]-2-pyridyl]pyridine-3-carbonitrile; formic acid]"
1.8,1.6,12,"Cc1cc(C#N)nn1-c1nc(-n2cnc3cc(Nc4nccnn4)ccc32)ccc1C(C)O (stereo not drawn) [Example 119, 1-[3-(1-Hydroxyethyl)-6-[5-(1,2,4-triazin-3-ylamino)benzimidazol-1-yl]-2-pyridyl]-5-methyl-pyrazole-3-carbonitrile]"
1310,307,2210,"Cc1ccc(Nc2ccc3ncn(-c4ccc(C(C)O)c(N5CCC(C)(C#N)C5)n4)c3c2)nn1 (stereo not drawn) [Example 120, 1-[3-(1-Hydroxyethyl)-6-[6-[(6-methylpyridazin-3-yl)amino]benzimidazol-1-yl]-2-pyridyl]-3-methyl-pyrrolidine-3-carbonitrile]"
22.4,3.6,1200,"Cc1ccc(Nc2ccc3c(c2)ncn3-c2ccc(C(C)O)c(N3CCC(C)(C#N)C3)n2)nn1 (stereo not drawn) [Example 121, 1-[3-(1-Hydroxyethyl)-6-[5-[(6-methylpyridazin-3-yl)amino]benzimidazol-1-yl]-2-pyridyl]-3-methyl-pyrrolidine-3-carbonitrile]"
33,6.9,3460,"Cc1ccc(Nc2ccc3c(c2)ncn3-c2ccc(C(C)O)c(-c3cc(C(F)(F)F)nn3C)n2)nn1 (stereo not drawn) [Example 122, 1-[6-[5-[(6-Methylpyridazin-3-yl)amino]benzimidazol-1-yl]-2-[2-methyl-5-(trifluoromethyl)pyrazol-3-yl]-3-pyridyl]ethanol]"
9.9,5.9,13,"Cc1cc(C#N)nn1-c1nc(-n2cnc3cc(Nc4ccon4)ccc32)ccc1C(C)O (stereo not drawn) [Example 123, 1-[3-(1-Hydroxyethyl)-6-[5-(isoxazol-3-ylamino)benzimidazol-1-yl]-2-pyridyl]-5-methyl-pyrazole-3-carbonitrile]"
36,10.1,1520,"Cc1ccc(Nc2ccc3c(c2)ncn3-c2ccc(C(C)O)c(C(=O)NCC(F)(F)F)n2)nn1 (stereo not drawn) [Example 124, 3-(1-Hydroxyethyl)-6-[5-[(6-methylpyridazin-3-yl)amino]benzimidazol-1-yl]-N-(2,2,2-trifluoroethyl)pyridine-2-carboxamide; formic acid]"
863,895,981,"Cc1ccc(Nc2ccc3ncn(-c4ccc(C(C)O)c(N5CC[C@@H]6NCC[C@H]65)n4)c3c2)nn1 (stereo partly drawn) [Example 125, 1-[6-[6-[(6-Methylpyridazin-3-yl)amino]benzimidazol-1-yl]-2-[(3aR,6aS)-2,3,3a,5,6,6a-hexahydro-1H-pyrrolo[3,2-b]pyrrol-4-yl]-3-pyridyl]ethanol; formic acid]"
74.5,228,65,"Cc1ccc(Nc2ccc3ncn(-c4ccc(C(C)O)c(N5CC[C@H]6NCC[C@@H]65)n4)c3c2)nn1 (stereo partly drawn) [Example 126, 1-[6-[6-[(6-Methylpyridazin-3-yl)amino]benzimidazol-1-yl]-2-[(3aS,6aR)-2,3,3a,5,6,6a-hexahydro-1H-pyrrolo[3,2-b]pyrrol-4-yl]-3-pyridyl]ethanol; formic acid]"
89.5,155,193,"Cc1ccc(Nc2ccc3ncn(-c4ccc(C(C)O)c(-n5nc(C(F)F)cc5C)n4)c3c2)nn1 (stereo not drawn) [Example 128, 1-[2-[3-(Difluoromethyl)-5-methyl-pyrazol-1-yl]-6-[6-[(6-methylpyridazin-3-yl)amino]benzimidazol-1-yl]-3-pyridyl]ethanol]"
3.9,1.2,472,"Cc1ccc(Nc2ccc3c(c2)ncn3-c2ccc(C(C)O)c(-n3nc(C(F)F)cc3C)n2)nn1 (stereo not drawn) [Example 129, 1-[2-[3-(Difluoromethyl)-5-methyl-pyrazol-1-yl]-6-[5-[(6-methylpyridazin-3-yl)amino]benzimidazol-1-yl]-3-pyridyl]ethanol; formic acid]"
215,339,589,"Cc1cc(C#N)nn1-c1nc(-n2cnc3cc(N4CCN(C5COC5)CC4)c(Br)cc32)ccc1C(C)O (stereo not drawn) [Example 130, 1-[6-[6-Bromo-5-[4-(oxetan-3-yl)piperazin-1-yl]benzimidazol-1-yl]-3-(1-hydroxyethyl)-2-pyridyl]-5-methyl-pyrazole-3-carbonitrile]"
7.7,2.2,447,"CCOc1cc(C)n(-c2nc(-n3cnc4cc(Nc5ccc(C)nn5)ccc43)ccc2C(C)O)n1 (stereo not drawn) [Example 133, 1-[2-(3-Ethoxy-5-methyl-pyrazol-1-yl)-6-[5-[(6-methylpyridazin-3-yl)amino]benzimidazol-1-yl]-3-pyridyl]ethanol; formic acid]"
345,1290,426,"CCOc1cc(C)n(-c2nc(-n3cnc4ccc(Nc5ccc(C)nn5)cc43)ccc2C(C)O)n1 (stereo not drawn) [Example 134, 1-[2-(3-Ethoxy-5-methyl-pyrazol-1-yl)-6-[6-[(6-methylpyridazin-3-yl)amino]benzimidazol-1-yl]-3-pyridyl]ethanol]"
